Experimental data taken from BindingDB's records for patent US20230365590 (Shenzhen Chipscreen Biosciences, 2023).

Target: Programmed cell death 1 ligand/protein 1 (Homo sapiens, UniProt Q15116+Q9NZQ7)
Assay: In Vitro Inhibitory Activity Against PD-1/PD-L1 Binding
Experimental: The experiment process was carried out according to the flow required in the operating manual of the test reagent.The process was as follows:(1) Experiment preparation: A test compound was diluted to different concentration gradients with the dilution buffer (the highest final concentration in a 20 μL final reaction system was 10 μM). The His-PD-1 protein was diluted to 800 nM (the final concentration in the 20 final reaction system was 100 nM). The PD-L1-Fc fusion protein was diluted to 16 nM (the final concentration was 2 nM). […] All tests were conducted by use of multiple holes.(4) The fluorescence detector Tecan (Spark 10M) was used to detect the fluorescence signal of each hole. The excitation wavelength was 320 nm, and the emission wavelengths for detection were 620 nm and 665 nm, respectively. The strength of PD-1/PD-L1 binding refers to a fluorescence signal ratio Em665/Em620.(5) Calculation formula of binding inhibition rate of test compound: Inhibition rate (%)=[1−(fluorescence signal ratio of detected hole−fluorescence signal ratio of 100% inhibition negative control)]/(fluorescence signal ratio of 0% inhibition positive control−fluorescence signal ratio of 100% inhibition negative control)×100%. […]

Sequence of Programmed cell death 1 ligand/protein 1 (Q9NZQ7 whole entry): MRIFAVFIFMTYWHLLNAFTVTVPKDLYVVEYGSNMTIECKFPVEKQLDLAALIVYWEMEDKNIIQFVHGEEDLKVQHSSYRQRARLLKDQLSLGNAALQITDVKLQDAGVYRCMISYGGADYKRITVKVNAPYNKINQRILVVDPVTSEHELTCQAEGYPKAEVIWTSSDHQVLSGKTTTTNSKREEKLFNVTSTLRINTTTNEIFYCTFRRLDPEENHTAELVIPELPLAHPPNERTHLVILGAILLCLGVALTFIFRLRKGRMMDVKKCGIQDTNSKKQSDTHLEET
Sequence of Programmed cell death 1 ligand/protein 1 (Q15116 whole entry): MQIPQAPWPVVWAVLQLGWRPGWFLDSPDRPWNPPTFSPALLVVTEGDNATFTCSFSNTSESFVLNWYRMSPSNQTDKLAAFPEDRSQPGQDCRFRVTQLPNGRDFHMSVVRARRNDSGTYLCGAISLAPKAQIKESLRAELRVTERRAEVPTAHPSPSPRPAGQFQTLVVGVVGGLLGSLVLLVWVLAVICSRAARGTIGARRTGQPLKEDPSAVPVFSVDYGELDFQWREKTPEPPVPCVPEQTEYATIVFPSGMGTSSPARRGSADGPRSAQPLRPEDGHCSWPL

## COCC12CCC(CCN3CCc4c(nc(C(=O)Nc5cccc(-c6cccc(NC(=O)c7nc8c(n7C)CCN(CCC79CCC(C(=O)O)(CC7)C9)C8)c6Cl)c5Cl)n4C)C3)(CC1)C2 [US20230365590, Compound I-6]
  IC50: 1.17 nM
